Inhibition of growth and pest or weed control data for 24 compounds are collected here from patent US11524934B2, “Phenylamine compounds” (PI INDUSTRIES LTD., priority 2017, dated 2022).

In one assay the test system is Pyricularia oryzae. As to the kind of experiment: microbe, parasite or virus in culture. The class given is cell-based. The following applies: 168 h, read-out: control.
Another assay concerns Phakopsora pachyrhizi. As to the kind of experiment: Phakopsora pachyrhizi test in soybean (in vivo on plants), preventive activity. The following applies: preventive spray on soybean plants, inoculated one day after treatment, disease severity rated vs untreated check. As for the experimental part: Example 8 (In Vivo on Plants): Phakopsora pachyrhizi Test in Soybean
Compounds were dissolved in 2% DMSO/Acetone & then mixed with water to the calibrated spray volume of 50 ml and poured into the spray bottles for further applications.
To test the preventive activity of compounds, healthy young soybean plants raised in the greenhouse were sprayed with active compound preparation at the stated application rates inside the spray cabinets using hallowcone nozzles. One day after treatment, the plants were inoculated with spore suspension containing 2.1×10^6 Phakopsora pachyrhizi inoculum. The inoculated plants were then kept in greenhouse chamber at 25° C. temperature & 90% Relative Humidity for disease expression.
A visual assessment of compound's performance was carried out by rating the disease severity (0-100% scale) on treated plants on 3, 7, 10 & 15 days after application. Efficacy (% control) of the compounds was calculated by comparing the disease rating in the treatment with the one of the untreated control. The sprayed plants were also assessed for compound's plant compatibility by recording symptoms like necrosis, chlorosis & stunting.

A further assay has as its system Septoria lycopersici. As to the kind of experiment: Septoria lycopersici (Leaf spot of tomato) in vitro test, radial growth on Potato Dextrose Agar. The settings on record: 168 h, read-out: control.
For a further assay, the system named is Alternaria solani. As to the kind of experiment: Alternaria solani (early blight of tomato/potato) in vitro test, radial growth on Potato Dextrose Agar. The following applies: 168 h, read-out: control.
For the next assay, the system named is Rhizoctonia solani. The following applies: 168 h, read-out: control.
A further assay has as its system Botrytis cinerea. As to the kind of experiment: Botrytis cinerea (Gray mold) in vitro test, radial growth on Potato Dextrose Agar. The following applies: 168 h, read-out: control.

By pest or weed control is commonly meant the degree to which the test organism was suppressed or injured, in per cent. A high value points to strong suppression. Take `CCN(C)C=Nc1cc(C)c(C(=O)COc2ccc(OC)cc2)cc1C` [Compound 10, N-ethyl-N′-(4-(2-(4-methoxyphenoxy)acetyl)-2,5-dimethylphenyl)-N-methylformimidamide]: the inhibition of growth at 300 ppm in the assay with Pyricularia oryzae, in the assay on Septoria lycopersici, in the assay on Alternaria solani and in the assay on Rhizoctonia solani was greater than 70% throughout. The compound further had a pest or weed control at 500 ppm with Phakopsora pachyrhizi greater than 90%.
`CCN(C)C=Nc1cc(C)c(C(=O)COc2ccc(Cl)cc2)cc1C` [Compound 16, N′-(4-(2-(4-chlorophenoxy)acetyl)-2,5-dimethylphenyl)-N-ethyl-N-methylformimidamide]: the inhibition of growth at 300 ppm in the assay with Pyricularia oryzae, with Septoria lycopersici and with Alternaria solani was greater than 70% in each case.
In the assay with Phakopsora pachyrhizi, `CCN(C)C=Nc1cc(C)c(C(=O)COc2cccc(C)c2)cc1Cl` [Compound 26, N′-(2-chloro-5-methyl-4-(2-(m-tolyloxy)acetyl)phenyl)-N-ethyl-N-methylformimidamide] returned a pest or weed control at 500 ppm greater than 90%. In addition, the inhibition of growth at 300 ppm in the assay on Alternaria solani was greater than 70%.
`CCN(C)C=Nc1cc(C)c(C(=O)CSc2ccccc2Br)cc1C` [Compound 30, N′-(4-(2-((2-bromophenyl)thio)acetyl)-2,5-dimethylphenyl)-N-ethyl-N-methylformimidamide]: the inhibition of growth at 300 ppm in the assay with Pyricularia oryzae, in the assay on Botrytis cinerea, in the assay with Septoria lycopersici, with Alternaria solani and in the assay on Rhizoctonia solani was greater than 70% throughout.
On to `CCN(C)C=Nc1cc(C)c(C(=O)COc2ccccc2Br)cc1Cl` [Compound 31, N′-(4-(2-(2-bromophenoxy)acetyl)-2-chloro-5-methylphenyl)-N-ethyl-N-methylformimidamide], for which the inhibition of growth at 300 ppm with Pyricularia oryzae, with Septoria lycopersici, in the assay with Alternaria solani and in the assay on Rhizoctonia solani was greater than 70% each time.
With `CCN(C)C=Nc1cc(C)c(C(=O)COc2ccc(F)cc2)cc1C` [Compound 33, N-ethyl-N′-(4-(2-(4-fluorophenoxy)acetyl)-2,5-dimethylphenyl)-N-methylformimidamide], the inhibition of growth at 300 ppm in the assay on Pyricularia oryzae, in the assay with Septoria lycopersici, with Alternaria solani and in the assay with Rhizoctonia solani was greater than 70% throughout.
In the case of `CCN(C)C=Nc1cc(C)c(C(=O)COc2ccccc2Br)cc1C` [Compound 34, N′-(4-(2-(2-bromophenoxy)acetyl)-2,5-dimethylphenyl)-N-ethyl-N-methylformimidamide], the inhibition of growth at 300 ppm in the assay on Pyricularia oryzae, in the assay on Septoria lycopersici, with Alternaria solani and with Rhizoctonia solani was greater than 70% throughout.
As for `CCN(C)C=Nc1cc(C)c(C(=O)CSc2ccc(Cl)cc2)cc1Cl` [Compound 38, N′-(2-chloro-4-(2-((4-chlorophenyl)thio)acetyl)-5-methylphenyl)-N-ethyl-N-methylformimidamide], the pest or weed control at 500 ppm with Phakopsora pachyrhizi is greater than 90%.
For the compound `CCN(C)C=Nc1cc(C)c(C(=O)CSc2ccccc2Br)cc1Cl` [Compound 39, N′-(4-(2-((2-bromophenyl)thio)acetyl)-2-chloro-5-methylphenyl)-N-ethyl-N-methylformimidamide], in the assay with Phakopsora pachyrhizi, the pest or weed control at 500 ppm is greater than 90%.
As to `Cc1cc(C(=O)COc2cccc(Cl)c2)c(C)cc1N=CN1CCOCC1` [Compound 40, 2-(3-chlorophenoxy)-1-(2,5-dimethyl-4-((morpholinomethylene)amino)phenyl)ethan-1-one], in the assay on Phakopsora pachyrhizi, the pest or weed control at 500 ppm is greater than 90%. The inhibition of growth at 300 ppm with Alternaria solani is greater than 70%.
On to `Cc1cc(C(=O)COc2cccc(Cl)c2)c(C)cc1N=CN1CCCCC1` [Compound 41, 2-(3-chlorophenoxy)-1-(2,5-dimethyl-4-((piperidin-1-ylmethylene)amino)phenyl)ethan-1-one], for which the pest or weed control at 500 ppm in the assay with Phakopsora pachyrhizi is greater than 90%. In addition, the inhibition of growth at 300 ppm in the assay with Alternaria solani and in the assay on Rhizoctonia solani was greater than 70% throughout.
Take `Cc1cc(C(=O)COc2cccc(Cl)c2)c(C)cc1N=CN(C)C(C)C` [Compound 42, N′-(4-(2-(3-chlorophenoxy)acetyl)-2,5-dimethylphenyl)-N-isopropyl-N-methylformimidamide]: the inhibition of growth at 300 ppm with Pyricularia oryzae, in the assay on Septoria lycopersici, in the assay with Alternaria solani and in the assay with Rhizoctonia solani was greater than 70% in each case. For the same compound, the pest or weed control at 500 ppm with Phakopsora pachyrhizi is greater than 90%.
For the compound `C=CCN(C)C=Nc1cc(C)c(C(=O)COc2cccc(Cl)c2)cc1C` [Compound 43, N-allyl-N′-(4-(2-(3-chlorophenoxy)acetyl)-2,5-dimethylphenyl)-N-methylformimidamide], in the assay with Phakopsora pachyrhizi, the pest or weed control at 500 ppm is greater than 90%.
The same measure, in the same setting: the value for `CCN(C)C=Nc1cc(C)c(C(=O)COc2ccccc2F)cc1Cl` [Compound 44, N′-(2-chloro-4-(2-(2-fluorophenoxy)acetyl)-5-methylphenyl)-N-ethyl-N-methylformimidamide] was greater than 90%.
Turning to `CCN(C)C=Nc1cc(C)c(C(=O)COc2ccc(F)cc2)cc1Cl` [Compound 45, N′-(2-chloro-4-(2-(4-fluorophenoxy)acetyl)-5-methylphenyl)-N-ethyl-N-methylformimidamide], the pest or weed control at 500 ppm in the assay with Phakopsora pachyrhizi is greater than 90%.
`Cc1cc(C(=O)COc2cccc(Cl)c2)c(C)cc1N=CNC#N` [Compound 46, N′-(4-(2-(3-chlorophenoxy)acetyl)-2,5-dimethylphenyl)-N-cyanoformimidamide] returned a pest or weed control at 500 ppm in the assay with Phakopsora pachyrhizi greater than 90%.
Consider `Cc1ccc(SCC(=O)c2cc(C)c(N=CN(C)C(C)C)cc2C)cc1C` [Compound 47, N′-(4-(2-((3,4-dimethylphenyl)thio)acetyl)-2,5-dimethylphenyl)-N-isopropyl-N-methylformimidamide], for which the inhibition of growth at 300 ppm in the assay with Pyricularia oryzae, in the assay on Alternaria solani and with Rhizoctonia solani was greater than 70% in each case. In addition, the pest or weed control at 500 ppm with Phakopsora pachyrhizi was greater than 90%.
As to `C=CCN(C)C=Nc1cc(C)c(C(=O)CSc2ccc(C)c(C)c2)cc1C` [Compound 48, N-allyl-N′-(4-(2-((3,4-dimethylphenyl)thio)acetyl)-2,5-dimethylphenyl)-N-methylformimidamide], the pest or weed control at 500 ppm in the assay on Phakopsora pachyrhizi is greater than 90%.
On the same count and under the same terms, the value for `Cc1ccc(SCC(=O)c2cc(C)c(N=CN3CCOCC3)cc2C)cc1C` [Compound 49, 1-(2,5-dimethyl-4-((morpholinomethylene)amino)phenyl)-2-((3,4-dimethylphenyl)thio)ethan-1-one] was greater than 90%.
In the assay on Phakopsora pachyrhizi, `CCN(C)C=Nc1cc(C)c(C(=O)CSc2ccc(Cl)c(Cl)c2)cc1Cl` [Compound 50, N′-(2-chloro-4-(2-((3,4-dichlorophenyl)thio)acetyl)-5-methylphenyl)-N-ethyl-N-methylformimidamide] showed a pest or weed control at 500 ppm greater than 90%.
As for `CCN(C)C=Nc1cc(C)c(C(=O)COc2ccc(C)cc2Cl)cc1C` [Compound 93, N′-(4-(2-(2-chloro-4-methylphenoxy)acetyl)-2,5-dimethylphenyl)-N-ethyl-N-methylformimidamide], the inhibition of growth at 300 ppm in the assay with Pyricularia oryzae, in the assay on Botrytis cinerea, in the assay on Septoria lycopersici, in the assay on Alternaria solani and with Rhizoctonia solani was greater than 70% in each case.
Consider `CCN(C)C=Nc1cc(C)c(C(=O)COc2ccc(Cl)cc2Cl)cc1C` [Compound 94, N′-(4-(2-(2,4-dichlorophenoxy)acetyl)-2,5-dimethylphenyl)-N-ethyl-N-methylformimidamide], for which the inhibition of growth at 300 ppm in the assay with Pyricularia oryzae, in the assay on Botrytis cinerea, with Septoria lycopersici, in the assay with Alternaria solani and in the assay on Rhizoctonia solani was greater than 70% throughout.
For the compound `CCN(C)C=Nc1cc(C)c(C(=O)COc2cc(C)ccc2C)cc1C` [Compound 95, N′-(4-(2-(2,5-dimethylphenoxy)acetyl)-2,5-dimethylphenyl)-N-ethyl-N-methylformimidamide], the inhibition of growth at 300 ppm in the assay on Pyricularia oryzae, in the assay with Botrytis cinerea, in the assay on Septoria lycopersici, in the assay with Alternaria solani and in the assay on Rhizoctonia solani was greater than 70% in each case.
On to `CCN(C)C=Nc1cc(C)c(C(=O)COc2cc(Cl)ccc2C)cc1C` [Compound 96, N′-(4-(2-(5-chloro-2-methylphenoxy)acetyl)-2,5-dimethylphenyl)-N-ethyl-N-methylformimidamide], for which the inhibition of growth at 300 ppm in the assay on Pyricularia oryzae, with Botrytis cinerea, in the assay with Septoria lycopersici, with Alternaria solani and with Rhizoctonia solani was greater than 70% throughout.
